SMILES strings stand for the structures. Counter-ions that a name gives are not always drawn.

The subject of one assay is NQO1 specific enzyme activity in BEAS-2B cells. Put plainly: BEAS-2B NQO1 MTT assay. Format: cell-based. The note with it: Homo sapiens, BEAS-2B, 48 h, BEAS-2B cells, 48 hours with compound, MTT readout; read-out: EC50 of NQO1 specific activity induction. The essentials:
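BEAS-2B cells treated with compound 48 h at 37° C, 5% CO2, then lysed; NQO1 activity in lysate measured kinetically by MTT cocktail at Absorbance 570 nm over 30 min. EC50 for induction from Delta OD/min versus log concentration, 3-parameter fit; Cell Titer Glo run on lysate aliquot.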
In general terms: Tetrazolium dyes change colour on reduction, which living cells bring about.
For the compound `CC[C@@H]1CN(Cc2cc(C(c3ccc(F)cc3C)C(C)(C)C(=O)O)ccc2C)Cc2ccccc2O1` (stereo partly drawn) [Example 115, 3-(3-(((R)-2-ethyl-2,3-dihydrobenzo[f][1,4]oxazepin-4(5H)-yl)methyl)-4-methylphenyl)-3-(4-fluoro-2-methylphenyl)-2,2-dimethylpropanoic Acid, Formic Acid Salt], the EC50 lay within 1000 to 10000 nM. On the same count and under the same terms, as for `CC[C@@H]1CN(Cc2cc(C(CC(=O)O)c3ccc4c(nnn4C)c3C)ccc2C)Cc2cccnc2O1` (stereo partly drawn) [Example 116, 3-(1,4-Dimethyl-1H-benzo[d][1,2,3]triazol-5-yl)-3-(3-(((R)-2-ethyl-2,3-dihydropyrido[3,2-f][1,4]oxazepin-4(5H)-yl)methyl)-4-methylphenyl)propanoic Acid, Formic Acid Salt], the figure is 1000 to 10000 nM.

In the case of `CC[C@@H]1CN(Cc2cc(C(CC(=O)O)c3ccc(F)cc3F)ccc2C)Cc2ccccc2O1` (stereo partly drawn) [Example 117, 3-(2,4-Difluorophenyl)-3-(3-(((R)-2-ethyl-2,3-dihydrobenzo[f][1,4]oxazepin-4(5H)-yl)methyl)-4-methylphenyl)propanoic Acid, Formic Acid Salt], the EC50 was in the range of 1000 to 10000 nM. As for `CCC1CCN(Cc2nccn2Cc2cc([C@@H](c3ccc4c(nnn4C)c3C)C(C)(C)C(=O)O)ccc2C)CC1` [Example 122, (S)-3-(1,4-Dimethyl-1H-benzo[d][1,2,3]triazol-5-yl)-3-(3-((2-((4-ethylpiperidin-1-yl)methyl)-1H-imidazol-1-yl)methyl)-4-methylphenyl)-2,2-dimethylpropanoate, Sodium salt], the EC50 fell in the range of 10 to 100 nM. Regarding `Cc1ccc(C(c2ccc3c(nnn3C)c2C)C(C)(C)C(=O)O)cc1Cn1ccnc1CN1CCCCC1` (centres unmarked) [Example 123, 3-(1,4-Dimethyl-1H-benzo[d][1,2,3]triazol-5-yl)-2,2-dimethyl-3-(4-methyl-3-((2-(piperidin-1-ylmethyl)-1H-imidazol-1-yl)methyl)phenyl)propanoate, Sodium salt], the EC50 lay in the range of 10 to 100 nM.

Turning to `Cc1ccc(C(c2ccc3c(nnn3C)c2C)C(C)(C)C(=O)O)cc1Cn1ccnc1CN1CCCC1` (centres unmarked) [Example 124, 3-(1,4-Dimethyl-1H-benzo[d][1,2,3]triazol-5-yl)-2,2-dimethyl-3-(4-methyl-3-((2-(pyrrolidin-1-ylmethyl)-1H-imidazol-1-yl)methyl)phenyl)propanoate, Sodium salt], the EC50 was 10 to 100 nM. Same read-out and setting: for `Cc1ccc([C@H](c2ccc3c(nnn3C)c2C)C(C)(C)C(=O)O)cc1Cn1ccnc1CC1CCCCCC1` [Example 125, (R)-3-(3-((2-(Cycloheptylmethyl)-1H-imidazol-1-yl)methyl)-4-methylphenyl)-3-(1,4-dimethyl-1H-benzo[d][1,2,3]triazol-5-yl)-2,2-dimethylpropanoate, Sodium salt] the value was 100 to 1000 nM; for `Cc1ccc([C@@H](c2ccc3c(nnn3C)c2C)C(C)(C)C(=O)O)cc1Cn1ccnc1CN1CCCCCC1` [Example 126, (S)-3-(3-((2-(Azepan-1-ylmethyl)-1H-imidazol-1-yl)methyl)-4-methylphenyl)-3-(1,4-dimethyl-1H-benzo[d][1,2,3]triazol-5-yl)-2,2-dimethylpropanoate, Sodium salt], 1 to 10 nM. With `Cc1ccc(C(CC(=O)O)c2ccc3c(nnn3C)c2C)cc1Cn1ccnc1CC1CCCCC1` (centres unmarked) [Example 127, 3-(3-((2-(Cyclohexylmethyl)-1H-imidazol-1-yl)methyl)-4-methylphenyl)-3-(1,4-dimethyl1H-benzo[d][1,2,3]triazol-5-yl)propanoic Acid], the EC50 was in the range of 10 to 100 nM. In the case of `Cc1ccc(C(CC(=O)O)c2ccc3c(nnn3C)c2C)cc1Cc1cnnn1CC1CCCCC1` (centres unmarked) [Example 128, 3-(3-((1-(Cyclohexylmethyl)-1H-1,2,3-triazol-5-yl)methyl)-4-methylphenyl)-3-(1,4-dimethyl-1H-benzo[d][1,2,3]triazol-5-yl)propanoic acid], the EC50 lay within 1000 to 10000 nM. The same measure, in the same setting: for `Cc1ccc(C(CC(=O)O)c2ccc3c(nnn3C)c2C)cc1Cn1ccnc1CC1CCOCC1` (centres unmarked) [Example 129, 3-(1,4-Dimethyl-1H-Benzo[d][1,2,3]triazol-5-yl)-3-(4-methyl-3-((2-((tetrahydro-2H-pyran-4-yl)methyl)-1H-imidazol-1-yl)methyl)phenyl)propanoic Acid] the value was 100 to 1000 nM; for `Cc1ccc(C(CCc2cn(C)nn2)CC(=O)O)cc1Cn1ccnc1CC1CCCCC1` (centres unmarked) [Example 130, 3-(3-((2-(Cyclohexylmethyl)-1H-imidazol-1-yl)methyl)-4-methylphenyl)-5-(1-methyl-1H-1,2,3-triazol-4-yl)pentanoic Acid], 100 to 1000 nM; for `Cc1ccc(C(c2ccc3c(nnn3C)c2C)C(C)(C)C(=O)O)cc1Cn1ccnc1CC1CCCCCC1` (centres unmarked) [Example 131, 3-(3-((2-(Cycloheptylmethyl)-1H-imidazol-1-yl)methyl)-4-methylphenyl)-3-(1,4-dimethyl-1H-benzo[d][1,2,3]triazol-5-yl)-2,2-dimethylpropanoic acid], 100 to 1000 nM. For the compound `CCC1CCC(Cc2nccn2Cc2cc(C(CC(=O)O)c3ccc4c(nnn4C)c3C)ccc2C)CC1` (centres unmarked) [Example 132, 3-(1,4-Dimethyl-1H-benzo[d][1,2,3]triazol-5-yl)-3-(3-((2-((4-ethylcyclohexyl)methyl)-1H-imidazol-1-yl)methyl)-4-methylphenyl)propanoic Acid], the EC50 was 1000 to 10000 nM.

Take `Cc1ccc(C(CC(=O)O)c2ccc3c(nnn3C)c2C)cc1Cn1ccnc1C(C)C1CCCCC1` (centres unmarked) [Example 133, Ammonium 3-(3-((2-(1-cyclohexylethyl)-1H-imidazol-1-yl)methyl)-4-methylphenyl)-3-(1,4-dimethyl-1H-benzo[d][1,2,3]triazol-5-yl)propanoate]: the EC50 was 100 to 1000 nM. For the compound `Cc1ccc(C(CC(=O)O)c2ccc3c(nnn3C)c2C)cc1Cc1nnnn1CC1CCCCC1` (centres unmarked) [Example 134, 3-(3-((1-(Cyclohexylmethyl)-1H-tetrazol-5-yl)methyl)-4-methylphenyl)-3-(1,4-dimethyl-1H-benzo[d][1,2,3]triazol-5-yl)propanoic acid, hydrochloride salt], the EC50 fell in the range of 100 to 1000 nM. On to `Cc1ccc(C(CC(=O)O)c2ccc(F)cc2C)cc1Cn1ccnc1CC1CCCCC1` (centres unmarked) [Example 135, 3-(3-((2-(Cyclohexylmethyl)-1H-imidazol-1-yl)methyl)-4-methylphenyl)-3-(4-fluoro-2-methylphenyl)propanoic Acid], for which the EC50 is 10 to 100 nM. On to `Cc1ccc(C(CC(=O)O)c2ccc3c(nnn3C)c2C)cc1Cn1cnc(CC2CCCCC2)c1` (centres unmarked) [Example 136, 3-(3-((4-(Cyclohexylmethyl)-1H-imidazol-1-yl)methyl)-4-methylphenyl)-3-(1,4-dimethyl-1H-benzo[d][1,2,3]triazol-5-yl)propanoic Acid], for which the EC50 was 10 to 100 nM.

As to `Cc1ccc(C(CC(=O)O)c2ccc3c(nnn3C)c2C)cc1Cn1nc(CC2CCCCC2)nc1C` (centres unmarked) [Example 137, 3-(3-((3-(Cyclohexylmethyl)-5-methyl-1H-1,2,4-triazol-1-yl)methyl)-4-methylphenyl)-3-(1,4-dimethyl-1H-benzo[d][1,2,3]triazol-5-yl)propanoic Acid], the concentration giving a half-maximal response (EC50) fell in the range of 100 to 1000 nM.

Staying with this assay, now noted: Homo sapiens; BEAS-2B cells, 48 hours with compound, MTT readout; read-out: EC50 of NQO1 specific activity induction.
With `CC[C@@H]1CN(Cc2cc(C(c3ccc4c(nnn4C)c3C)C(C)(C)C(=O)O)ccc2C)Cc2ccccc2O1` (stereo partly drawn) [Example 114, 3-(1,4-Dimethyl-1H-benzo[d][1,2,3]triazol-5-yl)-3-(3-(((R)-2-ethyl-2,3-dihydrobenzo[f][1,4]oxazepin-4(5H)-yl)methyl)-4-methylphenyl)-2,2-dimethylpropanoic Acid, Lithium Salt], the EC50 lay within 100 to 1000 nM.

By EC50 is commonly meant the concentration that produces a half-maximal response.

Values taken from patent publication US10604509B2, “Nrf2 regulators” (GlaxoSmithKline Intellectual Property Development Limited, priority 2015, dated 2020).
